Source: patent US12617770B2, “IRAK inhibitor and preparation method therefor and use thereof” (WUHAN CREATERNA SCIENCE AND TECHNOLOGY CO., LTD., priority 2019, dated 2026)

Key:
CYP3A4 [1] = molecular target: T1, CYP3A4 (Homo sapiens, UniProt P08684); test: Time-dependent inhibition (TDI) of CYP3A4 in human liver microsomes; type: in vitro ADME; details: probe substrate midazolam
T1 construct: The test compounds were co-incubated with the human liver microsomes and a probe substrate midazolam (CYP3A4); tissue Corning (USA); host or cells: mixed (pooled) human liver microsomes
T1 sequence (P08684 whole entry): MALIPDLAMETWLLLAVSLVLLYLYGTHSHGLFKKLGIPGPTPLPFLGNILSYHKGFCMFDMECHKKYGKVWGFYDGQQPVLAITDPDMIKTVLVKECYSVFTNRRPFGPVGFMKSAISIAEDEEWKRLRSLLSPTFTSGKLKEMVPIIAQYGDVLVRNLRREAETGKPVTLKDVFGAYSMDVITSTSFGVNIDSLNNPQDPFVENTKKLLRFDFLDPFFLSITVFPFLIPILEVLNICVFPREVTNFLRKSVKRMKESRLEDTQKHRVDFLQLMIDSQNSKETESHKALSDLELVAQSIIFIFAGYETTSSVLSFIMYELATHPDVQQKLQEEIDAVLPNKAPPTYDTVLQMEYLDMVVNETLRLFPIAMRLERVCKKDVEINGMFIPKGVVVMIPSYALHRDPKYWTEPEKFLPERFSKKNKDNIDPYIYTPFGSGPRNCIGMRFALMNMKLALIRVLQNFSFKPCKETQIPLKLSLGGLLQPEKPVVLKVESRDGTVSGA
Experimental: This study was intended to investigate the time-dependent inhibition effect of the compounds on CYP3A4 in human P450 superfamily. The mixed human liver microsomes used in this assay were purchased from Corning (USA).
The test compounds were co-incubated with the human liver microsomes and a probe substrate midazolam (CYP3A4), and the concentration of the test compounds was set at 30 μM. The reaction was initiated by adding coenzyme NADPH, and terminated by adding acetonitrile dossolved with internal standard in advance. After the proteins were precipitated, the supernatant was centrifuged. The characteristic metabolite 1-hydroxy-midazolam (CYP3A4) in the supernatant was analyzed by LC-MS/MS. The influence of the test compounds on production of the characteristic metabolites was finally analyzed on the basis of the data obtained. A selective inhibitor (verapamil for CYP3A4-M) was used as positive control.

[2] = Plasma protein binding (PPB), equilibrium dialysis, human plasma; type: in vitro ADME; details: 5 h at 37° C., read-out: Plasma protein binding (Bound %) Human (converted)
Experimental: (§1) The experiment is intended to determine plasma protein binding (PPB) data of the test compounds disclosed herein.
(§2) In the PPB experiment, the final administration matrix contained the test compound or a reference compound with a concentration of 1 μM and DMSO with a content of 0.2%.
(§3) Collecting samples in initial time: 25 μL of the matrix containing the compound was added into a blank 96-well collecting plate, and the plate was stored at −20° C.
(§4) An equilibrated dialysis device was prepared. 100 μL of buffer was added to the receiving side of the equilibrium dialysis plate. Then 100 μL of the administration matrix containing the compound or the reference compound was added into an administration side of the equilibrium dialysis plate. The prepared equilibrium dialysis plate was placed in a 37° C. shaker to be shaken for 5 h at 60 rpm.
(§5) Sample was prepared at the end of cultivation (5 h): Preparing sample in the receiving side: 25 μL of sample from a receiving side was taken out and placed in a 96-well sample collecting plate, and 25 μL of a corresponding matrix (blank plasma) was added for mixing: 200 μL of ACN containing an internal standard was added, shaken for 10 minutes at 600 rpm, and centrifuged at 5594 g for 15 min.
(§6) Preparing sample in the administration side: 25 μL of the sample containing test compound and reference compound from the administration side was taken out and 25 μL of a blank buffer was added for mixing; 200 μL of ACN containing an internal standard was added, shaken for 10 minutes at 600 rpm, and centrifuged at 5594 g for 15 min.
(§7) Preparing sample in initial time: the sample containing test compound and reference compound was re-melted at 37° C. in initial time and then mixed with the corresponding matrix (blank buffer) in the same volume (25 μL); 200 μL of ACN containing an internal standard was added, shaken for 10 minutes at 600 rpm, and centrifuged at 5594 g for 15 min.
(§8) After all the samples were centrifuged, 50 μL of a supernatant was taken and added into 50 μL of ultrapure water for mixing, and the samples were sent to liquid chromatography-mass spectrometry.

[3] = Plasma protein binding (PPB), equilibrium dialysis, mouse plasma; type: in vitro ADME; details: 5 h at 37° C., read-out: Plasma protein binding (Bound %) Mouse (converted)
Experimental: as §1, §2, §3, §4, §5, §6, §7, §8

[4] = Plasma protein binding (PPB), equilibrium dialysis, rat plasma; type: in vitro ADME; details: 5 h at 37° C., read-out: Plasma protein binding (Bound %) Rat (converted)
Experimental: as §1, §2, §3, §4, §5, §6, §7, §8

CYP2D6 = molecular target: T2, CYP2D6 (Homo sapiens, UniProt P10635); test: CYP450 inhibition in human liver microsomes, CYP2D6; type: in vitro ADME; details: human, microsomes
T2 construct: co-incubated at 7 concentrations with human liver microsomes and five probe substrates; tissue Corning (USA); host or cells: mixed (pooled) human liver microsomes
T2 sequence (P10635 whole entry): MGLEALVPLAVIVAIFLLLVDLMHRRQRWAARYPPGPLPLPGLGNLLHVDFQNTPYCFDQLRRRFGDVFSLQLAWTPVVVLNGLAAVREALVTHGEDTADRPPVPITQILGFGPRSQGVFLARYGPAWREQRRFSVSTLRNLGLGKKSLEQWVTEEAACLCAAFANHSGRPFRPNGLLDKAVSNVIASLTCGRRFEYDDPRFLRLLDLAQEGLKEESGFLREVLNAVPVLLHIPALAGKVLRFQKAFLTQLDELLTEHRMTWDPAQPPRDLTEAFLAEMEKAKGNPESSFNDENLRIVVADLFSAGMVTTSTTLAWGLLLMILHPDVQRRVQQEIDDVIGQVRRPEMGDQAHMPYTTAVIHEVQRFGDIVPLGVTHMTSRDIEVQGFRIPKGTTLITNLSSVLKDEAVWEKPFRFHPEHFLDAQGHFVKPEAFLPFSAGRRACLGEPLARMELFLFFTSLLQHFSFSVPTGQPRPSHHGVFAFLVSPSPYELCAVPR
Experimental: (§9) This study was intended to investigate the inhibitory effect of the test compounds on 5 major enzymes in human P450 superfamily, CYP1A2, 2C9, 2C19, 2D6 and 3A4-M. The mixed human liver microsomes used in this assay were purchased from Corning (USA). The test compound (compound 14) was co-incubated at 7 concentrations with human liver microsomes and five probe substrates (phenacetin for CYP1a2, diclofenac for CYP2C9, mephenytoin for CYP2C19, dextromethorphan for CYP2D6, midazolam for CYP3A4-M, mixed). The reaction was initiated by adding coenzyme NADPH, and terminated by adding acetonitrile containing internal standard. After the proteins were precipitated, the supernatant was centrifuged. The characteristic metabolites in the supernatant (acetaminophen for CYP1A2, 4-hydroxydiclofenac for CYP2C9, 4-hydroxymephenytoin for CYP2C19, dextrorphan for CYP2D6, 1-hydroxymidazolam for CYP3A4-M) were analyzed by LC-MS/MS. The influence of the test compounds on production of the characteristic metabolites was finally analyzed on the basis of the data obtained. A selective inhibitor (ketoconazole for CYP3A4-M) may be used as positive control. All samples were tested in duplicate.

CYP3A4 [5] = molecular target: T1, CYP3A4; test: CYP450 inhibition in human liver microsomes, CYP3A4-M; type: in vitro ADME; details: human, microsomes
Experimental: as §9

human IRAK4 = molecular target: T3, human IRAK4 (Homo sapiens, UniProt Q9NWZ3); test: IRAK4 MSA (Mobility-Shift Assay) at Km concentration of ATP; type: biochemical; details: GST-IRAK4 1 nM, ATP 37 μM (Km); read-out: IC50 for inhibiting human IRAK4 activity
T3 construct: purchased Cama (so in the source)
T3 sequence (Q9NWZ3 1-460): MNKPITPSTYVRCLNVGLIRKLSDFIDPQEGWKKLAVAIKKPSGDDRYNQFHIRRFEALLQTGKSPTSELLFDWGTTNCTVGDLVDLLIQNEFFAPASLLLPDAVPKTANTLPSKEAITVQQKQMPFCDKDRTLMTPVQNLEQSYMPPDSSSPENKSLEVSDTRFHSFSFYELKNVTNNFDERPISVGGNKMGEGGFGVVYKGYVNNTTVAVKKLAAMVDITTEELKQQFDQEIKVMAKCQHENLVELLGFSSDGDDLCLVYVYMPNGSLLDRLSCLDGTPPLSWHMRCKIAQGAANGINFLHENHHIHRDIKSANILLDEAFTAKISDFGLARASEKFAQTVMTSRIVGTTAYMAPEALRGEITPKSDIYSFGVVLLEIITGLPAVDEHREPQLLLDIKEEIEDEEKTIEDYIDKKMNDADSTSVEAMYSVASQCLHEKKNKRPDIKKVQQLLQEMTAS
Experimental: A recombinant fusion protein of N-terminal GST (glutathione-S-transferase) and human IRAK4 was used as enzyme (GST-IRAK4, kinase IRAK4 (Cama, CAT No. 09-145)) at a final concentration of 1 nM; ATP (Sigma. CAT No. A7699-1G) was at a final concentration of 37 μM; • the substrates used for the kinase reaction were 5-FAM (5-carboxyfluorescein)-labeled polypeptide (5-FAM-[…]-COOH) and substrate peptide FAM-P8 (GL Biochem, CAT No. 112396) at final concentrations of 5 μM.
In this assay, 500 μM stock solutions of the compounds were prepared in 100% DMSO, and serially 4-fold diluted to the 10th concentration gradient with 100% DMSO, followed by a 10-fold dilution in the compound buffer (50 mM HEPES, pH 7.5, 0.00015% Brij-35) to give intermediate dilutions of the compounds at a final concentration of 10 μM−0.04 nM containing 10% DMSO. 5 μL of the intermediate dilution was transferred into a black 384-well plate.
IRAK4 was diluted to 2.5 nM in the kinase buffer (50 mM HEPES, pH 7.5, 0.00015% Brij-35, 2 mM DTT). 10 μL of the IRAK4 dilution was transferred to the 384-well plate and co-incubated with the compound for 10-15 min.
The substrate and ATP were diluted to 12.5 μM and 92.5 μM with reaction buffer (50 mM HEPES, pH 7.5, 0.00015% Brij-35, 10 mM MgCl2), respectively. 10 μL of the dilution was transferred to a 384-well plate and incubated at 28° C. for 1 h. The reaction was terminated by adding 25 μL of 50 mM EDTA to the 384-well plate.
The inhibition rate of IRAK4 by the compounds was calculated by measuring the rate of phosphorylated substrate using a Caliper EZ Reader (PerkinElmer) and the IC50 was calculated by XL-fit software. […] In particular, some exemplary compound activity values are as follows: […]

TNF-α release = test: Inhibition of cytokine TNF-α release in LPS-induced Balb/c female mice; type: in vivo; details: oral gavage 16 h before LPS (i.p. 0.2 mg/kg); serum 1.5 h after stimulation
Experimental: Female Balb/c mice were randomized into groups, each containing 4 mice, including a control+vehicle group, a model+vehicle group, a model+reference group and model+compound groups. The control animals received an intraperitoneal injection of normal saline (10 mL/kg) and the model animals received LPS stimulation (Sigma CAT #L2630, i.p., 10 mL/kg, 0.2 mg/kg). To the test compounds, DMSO, Solutol and 10 mM PBS were sequentially added to prepare a solution or suspension of required concentration for administration. For the vehicle, DMSO, Solutol and 10 mM PBS were mixed in a volume ratio of 5:15:80. The animals were administered through oral gavage (10 mL/kg) 16 h before LPS (or saline) stimulation at predetermined doses, and euthanized with CO2 at 1.5 h after the stimulation for cardiac blood collection. The whole blood was not anticoagulated, incubated in wet ice for 1.5 h, and centrifuged at 2000×g at 4° C. for 10 min to separate the serum. Serum was frozen at −80° C. for TNF-α assay. Quantification of TNF-α was done by TNF-α ELISA kit according to the manufacturer's instructions. The readings of absorbance at A450 were measured with a microplate reader SpectraMax i3x (Molecular Device) for calculating the inhibition of the compounds, and IC50 was calculated with GraphPad Prism 7.0 software. […] In particular, some exemplary compound inhibition rate values are as follows: […]

[6] = Pharmacokinetic study, single oral gavage dosing; type: in vivo; details: mouse, 40 mg/kg, 40 mpk, 15% solutol HS15 + 85% PBS, ICR mice, plasma

Structure (SMILES) | TDI (3A4, 30 μM) (CYP3A4 [1]) | fraction unbound at 5 h, 1 μM [2] | fraction unbound at 5 h, 1 μM [3] | fraction unbound at 5 h, 1 μM [4] | IC50 (CYP2D6) [nM] | IC50 (CYP3A4 [5]) [nM] | IC50 (human IRAK4) [nM] | Inhibition rate (%) of TNF-α (TNF-α release) [%] | AUC(0-t) ([6]; read-out: Area under curve AUC0-t) [µg·h/mL] | AUC(0-inf) ([6]; read-out: Area under curve AUC0-∞) [µg·h/mL] | MRT ([6]; read-out: Average retention time MRT) [h] | half-life ([6]; read-out: Half life t1/2 (converted)) [h] | Cmax ([6]; read-out: Peak concentration Cmax) [ng/mL] | Tmax ([6]; read-out: Time to peak tmax) [h]
COc1cc2nn([C@H]3CC[C@H](O)CC3)cc2cc1NC(=O)c1cccc(C2CC2)[n+]1[O-] [Compound 014, 2-cyclopropyl-6-((2-((1r,4r)-4-hydroxycyclohexyl)-6-methoxy-2H-indazol-5-yl)carbamoyl)pyridine 1-oxide] | +3.85% |  |  |  |  |  |  |  |  |  |  |  |  | 
CC(C)(O)CCn1cc2cc(NC(=O)c3cccc(C(F)(F)F)n3)c(C(C)(C)O)cc2n1 [A, reference compound] |  | 0.0098 | 0.148 | 0.13 | > 30000 | > 30000 |  |  |  |  |  |  |  | 
CCOc1cc2nn([C@H]3CC[C@H](O)CC3)cc2cc1NC(=O)c1cccc(C)[n+]1[O-] [Compound 016, 2-((6-ethoxy-2-((1r,4r)-4-hydroxycyclohexyl)-2H-indazol-5-yl)carbamoyl)-6-methylpyridine 1-oxide] |  | 0.131 | 0.123 | 0.099 |  |  | 8.1 | 78.71 |  |  |  |  |  | 
COc1cc2nn([C@H]3CC[C@H](O)CC3)cc2cc1NC(=O)c1cccc(C)[n+]1[O-] [Compound 013, 2-((2-((1r,4r)-4-hydroxycyclohexyl)-6-methoxy-2H-indazol-5-yl)carbamoyl)-6-methylpyridine 1-oxide] |  | 0.191 | 0.238 | 0.183 |  |  | 7.6 | 76.29 | 160 | 182 | 10.4 | 7.23 | 18900 | 1
